Columns and labels:
[1] = system: TGF-b-induced phosphorylation of Smad2 in squamous cell carcinoma (A431) cells; assay: Western blot for phospho-Smad2 in A431 cells; type: cell-based; conditions: 10 nM peptide, 100 pM TGF-b, 45 min at 4 C (FIG. 32)
Procedure: A431 cancer cells treated with 10 nM of P16.2 (negative peptide control), P16 or PA in the absence or presence of 100 pM TGF-b, followed by 45 min of incubation at 4 C. Cells lysates were analyzed by Western blot using an anti-phosphoSmad2 antibody. Actin expression was used as loading control.

[2] = system: TGF-β-induced fibrotic response in primary human fibroblasts isolated from scleroderma patients; assay: Immunoblot of fibrotic markers in scleroderma patient fibroblasts; type: cell-based; conditions: various concentrations of P16, 20 pM TGF-β, 24 hours (FIG. 31)
Excerpt: (FIG. 30A) Cell lysates were separated by gel electrophoresis, transferred to a membrane, and immunoblotted with antibodies against the indicated proteins. (FIG. 30B) The data shown represent the mean expression levels of 3 different biological replicates calculated by densitometry of fibronectin, PAI-1, and CTGF intensity levels normalized to α-tubulin. Error bars represent the standard deviation of the replicate experiments. A single asterisk designates a t test P value of less than 0.05.
Fibroblasts were starved for 36 hours, then treated with 20 pM TGF-β and various concentrations of P16 as indicated for 24 hours. (FIG. 31A) Cell lysates were separated by gel electrophoresis, transferred to a membrane, and immunoblotted with antibodies against the indicated proteins. (FIG. 31B) The data shown represent the mean expression levels of 3 different biological replicates calculated by densitometry of fibronectin, PAI-1, and CTGF intensity levels normalized to α-tubulin. Error bars represent the standard deviation of the replicate experiments. A single asterisk designates a t test P value of less than 0.05, and a double asterisk indicates a P value of less than 0.01.

[3] = system: bleomycin-induced skin fibrosis; assay: Bleomycin-induced skin fibrosis (scleroderma) mouse model; type: in vivo
Procedure: Wild type mice were treated with bleomycin ([…]) to induce skin fibrosis or PBS (negative control). Mice were treated with CD109 ([…]), P16 ([…]), or PBS by 100 μL subcutaneous injection every other day for 28 days for a total of 14 injections.
(§1) Mice were injected intradermally with bleomycin (5 mg) in […] PBS or PBS alone every second day for 28 days. Mice were co-injected without or with 1.0 mg recombinant CD109 protein or P16 peptide every second day for 28 days (14 mg total). Skin tissue was harvested and immunohistochemical analysis was performed for the detection of Fibronectin, α-sma, CTGF and Type-1 Collagen. Representative images of sections of skin derived from CD109 and p16 treated mice on day 28 after initial bleomycin or PBS treatment are shown. A total of 4-6 different mice per treatment group were analyzed. Original magnification x 20.
as §1, with “phospho-Smad2, phospho-Smad1” for “Fibronectin, α-sma, CTGF”, “TGF-β levels.” for “Type-1 Collagen.”

[4] = co-injected with bleomycin every second day for 28 days (FIG. 37)

In the case of ETWIWLDTNMGSRIYQ [Peptide P16], the “inhibition of TGF-b-induced phosphorylation of Smad2” value [1] is reported as “inhibit”, the “inhibition of TGF-β-induced fibrotic response, dose-dependent” value [2] is reported as “inhibit” and the “SMAD1 phosphorylation in skin (immunohistochemistry)” value [3, 4] is reported as “enhancing”. The “SMAD2 phosphorylation in skin (immunohistochemistry)” value [3, 4] was “reduces”, the “TGF-β expression in skin (immunohistochemistry)” value [3, 4] was “reduces” and the “extracellular matrix production (Fibronectin, α-sma, CTGF, Type-1 Collagen, immunohistochemistry)” value ([3]; co-injected with bleomycin every second day for 28 days, skin on day 28 (FIG. 36)) was “reduces”. For the same sequence, the “collagen content as assessed by trichrome staining” value ([3]; subcutaneous injection every other day for 28 days (FIG. 35A)) was “reducing”, the “dermal collagen content, ratio of trichrome stain to total skin area” value ([3]; subcutaneous injection every other day for 28 days (FIG. 35B)) was “reducing” and the dermal thickness ([3]; trichrome staining, subcutaneous injection every other day for 28 days (FIG. 35A)) was “reducing”.

— US11787850B2, “Peptidic TGF-beta antagonists” (priority 2015, dated 2023)
